# Laboratory results as given in patent US20260242330A1, “USE OF AN AMANTADINE MONONITRATE COMPOUND IN MANUFACTURE OF A MEDICAMENT FOR THE PREVENTION AND TREATMENT OF HYPERTENSION” (GUANGZHOU MAGPIE PHARMACEUTICALS CO., LTD., priority 2022, published 2026).
# Columns and labels:
# [1] = tested on: blood pressure of subjects; experiment: Effect of single administration of MN-08 on blood pressure of subjects (clinical trial); format: in vivo, human
# Text: All subjects in the following embodiments have signed informed consent forms, which comply with medical ethics regulations. According to the relevant provisions of Chinese Guidelines for the Prevention and Treatment of Hypertension (2018 Revision), the values measured for hypertension are the average blood pressure measured three times on a different day without the use of antihypertensive drugs. Therefore, in this embodiment, the baseline blood pressure of the subjects before administration is set as the average blood pressure measured at three different times: screening period, occupancy period, and 1 hour before administration, as shown in Tables 1 to 3.
# In the clinical trial of amantadine mononitrate compound MN-08, it is investigated the effect of MN-08 on blood pressure in subjects. The experiments were carried out to analyze the blood pressure status of subjects in both the single dose and multiple dose groups.
# During a single administration, each dose group is required to fast for at least 10 hours before administration, without water deprivation overnight, and on the day of administration, the medication is taken on an empty stomach at around 8 a.m., with 240 mL of water administered.
# [2] = Pharmacokinetic test of MN-08 in clinical trial, single oral dose; format: in vivo, human
# Description: In the clinical trial of amantadine mononitrate compound MN-08, the pharmacokinetic test included a total of 8 dose groups (6 mg, 12 mg, 42 mg, 60 mg, 78 mg, 96 mg, 114 mg, and 132 mg).
# The subjects received a single oral dose of MN-08 at doses of 6 mg, 12 mg, 42 mg, 60 mg, 78 mg, 96 mg, 114 mg, and 132 mg, respectively. […] Most existing antihypertensive drugs have a short half-life and require frequent administration, resulting in poor patient compliance. In contrast, the amantadine mononitrate compound MN-08 of the present invention has a half-life of more than 20 hours, a long drug action time, and can reduce the number of administration times and improve patient compliance compared to other existing hypertensive drugs.
smiles,measurement,setting,value
CCC12CC3CC(N)(C1)CC(CO[N+](=O)[O-])(C3)C2 (stereo not shown) [MN-08],DP,"[1]; Subject 7, 78 mg single dose, 12 hrs after adm. (D 1), baseline 74 mmHg",60 mmHg
same,SP,"[1]; Subject 7, 78 mg single dose, 12 hrs after adm. (D 1), baseline 106 mmHg",102 mmHg
same,DP (reduce amplitude),"[1]; Subject 7, 78 mg single dose, 12 hrs after adm. (D 1), vs baseline 74 mmHg",−18.9%
same,SP (reduce amplitude),"[1]; Subject 7, 78 mg single dose, 12 hrs after adm. (D 1), vs baseline 106 mmHg",−3.8%
same,DP,"[1]; Subject 8, 96 mg single dose, 6 hrs after adm. (D 1), baseline 69 mmHg",51 mmHg
same,SP,"[1]; Subject 8, 96 mg single dose, 6 hrs after adm. (D 1), baseline 101 mmHg",79 mmHg
same,DP (reduce amplitude),"[1]; Subject 8, 96 mg single dose, 6 hrs after adm. (D 1), vs baseline 69 mmHg",−26.1%
same,SP (reduce amplitude),"[1]; Subject 8, 96 mg single dose, 6 hrs after adm. (D 1), vs baseline 101 mmHg",−21.8%
same,DP,"[1]; Subject 8, 96 mg single dose, 12 hrs after adm. (D 1), baseline 69 mmHg",61 mmHg
same,SP,"[1]; Subject 8, 96 mg single dose, 12 hrs after adm. (D 1), baseline 101 mmHg",87 mmHg
same,DP (reduce amplitude),"[1]; Subject 8, 96 mg single dose, 12 hrs after adm. (D 1), vs baseline 69 mmHg",−11.6%
same,SP (reduce amplitude),"[1]; Subject 8, 96 mg single dose, 12 hrs after adm. (D 1), vs baseline 101 mmHg",−13.8%
same,DP,"[1]; Subject 9, 96 mg single dose, 6 hrs after adm. (D 1), baseline 78 mmHg",63 mmHg
same,SP,"[1]; Subject 9, 96 mg single dose, 6 hrs after adm. (D 1), baseline 121 mmHg",105 mmHg
same,DP (reduce amplitude),"[1]; Subject 9, 96 mg single dose, 6 hrs after adm. (D 1), vs baseline 78 mmHg",−19.2%
same,SP (reduce amplitude),"[1]; Subject 9, 96 mg single dose, 6 hrs after adm. (D 1), vs baseline 121 mmHg",−13.2%
same,DP,"[1]; Subject 9, 96 mg single dose, 12 hrs after adm. (D 1), baseline 78 mmHg",68 mmHg
same,SP,"[1]; Subject 9, 96 mg single dose, 12 hrs after adm. (D 1), baseline 121 mmHg",103 mmHg
same,DP (reduce amplitude),"[1]; Subject 9, 96 mg single dose, 12 hrs after adm. (D 1), vs baseline 78 mmHg",−12.8%
same,SP (reduce amplitude),"[1]; Subject 9, 96 mg single dose, 12 hrs after adm. (D 1), vs baseline 121 mmHg",−14.8%
same,DP,"[1]; Subject 10, 114 mg single dose, 6 hrs after adm. (D 1), baseline 75 mmHg",62 mmHg
same,SP,"[1]; Subject 10, 114 mg single dose, 6 hrs after adm. (D 1), baseline 115 mmHg",92 mmHg
same,DP (reduce amplitude),"[1]; Subject 10, 114 mg single dose, 6 hrs after adm. (D 1), vs baseline 75 mmHg",−17.3%
same,SP (reduce amplitude),"[1]; Subject 10, 114 mg single dose, 6 hrs after adm. (D 1), vs baseline 115 mmHg",−20.0%
same,DP,"[1]; Subject 10, 114 mg single dose, 12 hrs after adm. (D 1), baseline 75 mmHg",57 mmHg
same,SP,"[1]; Subject 10, 114 mg single dose, 12 hrs after adm. (D 1), baseline 115 mmHg",90 mmHg
same,DP (reduce amplitude),"[1]; Subject 10, 114 mg single dose, 12 hrs after adm. (D 1), vs baseline 75 mmHg",−24.0%
same,SP (reduce amplitude),"[1]; Subject 10, 114 mg single dose, 12 hrs after adm. (D 1), vs baseline 115 mmHg",−21.7%
same,DP,"[1]; Subject 11, 114 mg single dose, 6 hrs after adm. (D 1), baseline 85 mmHg",68 mmHg
same,SP,"[1]; Subject 11, 114 mg single dose, 6 hrs after adm. (D 1), baseline 126 mmHg",119 mmHg
same,DP (reduce amplitude),"[1]; Subject 11, 114 mg single dose, 6 hrs after adm. (D 1), vs baseline 85 mmHg",−20.0%
same,SP (reduce amplitude),"[1]; Subject 11, 114 mg single dose, 6 hrs after adm. (D 1), vs baseline 126 mmHg",−5.6%
same,DP,"[1]; Subject 11, 114 mg single dose, 12 hrs after adm. (D 1), baseline 85 mmHg",68 mmHg
same,SP,"[1]; Subject 11, 114 mg single dose, 12 hrs after adm. (D 1), baseline 126 mmHg",105 mmHg
same,DP (reduce amplitude),"[1]; Subject 11, 114 mg single dose, 12 hrs after adm. (D 1), vs baseline 85 mmHg",−20.0%
same,SP (reduce amplitude),"[1]; Subject 11, 114 mg single dose, 12 hrs after adm. (D 1), vs baseline 126 mmHg",−16.7%
same,DP,"[1]; Subject 12, 132 mg single dose, 6 hrs after adm. (D 1), baseline 78 mmHg",59 mmHg
same,SP,"[1]; Subject 12, 132 mg single dose, 6 hrs after adm. (D 1), baseline 123 mmHg",120 mmHg
same,DP (reduce amplitude),"[1]; Subject 12, 132 mg single dose, 6 hrs after adm. (D 1), vs baseline 78 mmHg",−24.4%
same,SP (reduce amplitude),"[1]; Subject 12, 132 mg single dose, 6 hrs after adm. (D 1), vs baseline 123 mmHg",−2.4%
same,DP,"[1]; Subject 12, 132 mg single dose, 12 hrs after adm. (D 1), baseline 78 mmHg",60 mmHg
same,SP,"[1]; Subject 12, 132 mg single dose, 12 hrs after adm. (D 1), baseline 123 mmHg",105 mmHg
same,DP (reduce amplitude),"[1]; Subject 12, 132 mg single dose, 12 hrs after adm. (D 1), vs baseline 78 mmHg",−23.1%
same,SP (reduce amplitude),"[1]; Subject 12, 132 mg single dose, 12 hrs after adm. (D 1), vs baseline 123 mmHg",−14.6%
same,DP,"[1]; Subject 13, 132 mg single dose, 6 hrs after adm. (D 1), baseline 68 mmHg",54 mmHg
same,SP,"[1]; Subject 13, 132 mg single dose, 6 hrs after adm. (D 1), baseline 106 mmHg",97 mmHg
same,DP (reduce amplitude),"[1]; Subject 13, 132 mg single dose, 6 hrs after adm. (D 1), vs baseline 68 mmHg",−20.6%
same,SP (reduce amplitude),"[1]; Subject 13, 132 mg single dose, 6 hrs after adm. (D 1), vs baseline 106 mmHg",−8.5%
same,DP,"[1]; Subject 13, 132 mg single dose, 12 hrs after adm. (D 1), baseline 68 mmHg",56 mmHg
same,SP,"[1]; Subject 13, 132 mg single dose, 12 hrs after adm. (D 1), baseline 106 mmHg",96 mmHg
same,DP (reduce amplitude),"[1]; Subject 13, 132 mg single dose, 12 hrs after adm. (D 1), vs baseline 68 mmHg",−17.6%
same,SP (reduce amplitude),"[1]; Subject 13, 132 mg single dose, 12 hrs after adm. (D 1), vs baseline 106 mmHg",−9.4%
same,effect of a single dose on blood pressure,"[1]; all dose groups (6, 12, 42, 60, 78, 96, 114, 132 mg), especially diastolic pressure",can reduce the blood pressure
same,half-life,"[2]; human, in vivo, po, single oral administration, dose range 6 mg to 132 mg, t1/2 extends with increasing dosage",20 to 30 h
same,time at which peak concentration was reached,"[2]; single oral dose, 6 mg to 132 mg groups",2.5 to 6.5 h
